Source: patent EP0181109B1, “N6-benzopyrano- and benzothiopyrano-adenosines” (WARNER-LAMBERT COMPANY, priority 1984, dated 1986)

What follows are molecules tested on mice falling off the inverted screen (assay: Mouse Activity and Screen Test Procedure (MAST): screen test (ST)). Conditions: 1 mg/kg intraperitoneally, one hour postinjection; percent of mice falling off the screen.
Type: in vivo, Swiss-Webster male mice
From the text: The compounds of the invention are new chemical substances which are useful as pharmaceutical agents for the treatment of psychoses. The antipsychotic activity of representative compounds of the invention was established by the Mouse Activity and Screen Test Procedure (MAST) described below.
(§1) Nine unfasted Swiss-Webster male mice weighing 20-30 g are equally divided into three groups for each drug dose to be tested. There is, data for each dose level was generated by three separate groups of three mice each.
(§2) A minimum of three dose levels (10, 30, and 100 mg/kg) are tested for each drug. Treatments are administered intraperitoneally one hour prior to testing. All dosages are calculated as parent compound and given in volumes of 10 ml/kg. Compounds are dissolved or suspended in 0.2% Methocel. Control animals are injected with Methocel.
Testing: A two part testing procedure is started one hour postinjection. First, the screen test (ST) is performed (see Pharmac. Biochem. Behav. 6,351-353,1977). Briefly this test consists of placing mice on individual wire screens which are then rotated 180 degrees at the start of a 60 second observation period. The number of mice falling off the inverted screen is recorded.
(§3) Data: The data obtained from the screen test are expressed as percent of mice falling off the screen. Data derived from locomotor activity of drug treated mice are compared to the activity of vehicle treated animals and are expressed as percent inhibition of spontaneous locomotion. All percentages reported for inhibition of locomotion (LI) are based upon data accumulated for one hour. Both phases of testing are graded: A=60-100%; C=31-59%; and N=0-30%. An overall dose rating is obtained by the following criteria:
LAD refers to the lowest dose at which an A rating is achieved. […] Utilizing this procedure, an overall dose rating of A was obtained for the noted compound at the indicated dose. The compounds are identified in the Examples.
In the case of `OC[C@H]1O[C@@H](n2cnc3c(NC4CSc5ccccc5C4)ncnc32)[C@H](O)[C@@H]1O` (stereo partly drawn) [Example 2], the “Screen Test Failure” value is reported as 11%. With `Cc1ccc2c(c1C)OCC(Nc1ncnc3c1ncn3[C@@H]1O[C@H](CO)[C@@H](O)[C@H]1O)C2` (stereo partly drawn) [Example 10, N^6-[7,8-Dimethyl-3-chromanylamino]adenosine] the “Screen Test Failure” value was 0%.

Same assay, conditions: 3 mg/kg intraperitoneally, one hour postinjection; percent of mice falling off the screen
With `OC[C@H]1O[C@@H](n2cnc3c(NC4CCOc5ccccc54)ncnc32)[C@H](O)[C@@H]1O` (stereo partly drawn) [Example 1] the “Screen Test Failure” value was 33%. `OC[C@H]1O[C@@H](n2cnc3c(NC4CSc5ccccc5C4)ncnc32)[C@H](O)[C@@H]1O` (stereo partly drawn) [Example 2] was tested, and the “Screen Test Failure” value was 0%. With `OC[C@H]1O[C@@H](n2cnc3c(NC4CCSc5ccccc54)ncnc32)[C@H](O)[C@@H]1O` (stereo partly drawn) [Example 15] the “Screen Test Failure” value was 11%. In the case of `Cc1ccc2c(c1C)OCC(Nc1ncnc3c1ncn3[C@@H]1O[C@H](CO)[C@@H](O)[C@H]1O)C2` (stereo partly drawn) [Example 10, N^6-[7,8-Dimethyl-3-chromanylamino]adenosine], the “Screen Test Failure” value is reported as 0%.

Same assay, conditions: 10 mg/kg intraperitoneally, one hour postinjection; percent of mice falling off the screen
In the case of `OC[C@H]1O[C@@H](n2cnc3c(NC4CCOc5ccccc54)ncnc32)[C@H](O)[C@@H]1O` (stereo partly drawn) [Example 1], the “Screen Test Failure” value is reported as 33%. In the case of `OC[C@H]1O[C@@H](n2cnc3c(NC4CSc5ccccc5C4)ncnc32)[C@H](O)[C@@H]1O` (stereo partly drawn) [Example 2], the “Screen Test Failure” value is reported as 11%. In the case of `OC[C@H]1O[C@@H](n2cnc3c(NC4CCSc5ccccc54)ncnc32)[C@H](O)[C@@H]1O` (stereo partly drawn) [Example 15], the “Screen Test Failure” value is reported as 22%. `Cc1ccc2c(c1C)OCC(Nc1ncnc3c1ncn3[C@@H]1O[C@H](CO)[C@@H](O)[C@H]1O)C2` (stereo partly drawn) [Example 10, N^6-[7,8-Dimethyl-3-chromanylamino]adenosine] was tested, and the “Screen Test Failure” value was 11%.

Same assay, conditions: 30 mg/kg intraperitoneally, one hour postinjection; percent of mice falling off the screen
`OC[C@H]1O[C@@H](n2cnc3c(NC4CCOc5ccccc54)ncnc32)[C@H](O)[C@@H]1O` (stereo partly drawn) [Example 1] was tested, and the “Screen Test Failure” value was 22%. For `OC[C@H]1O[C@@H](n2cnc3c(NC4CSc5ccccc5C4)ncnc32)[C@H](O)[C@@H]1O` (stereo partly drawn) [Example 2], the “Screen Test Failure” value was 56%. `OC[C@H]1O[C@@H](n2cnc3c(NC4CCSc5ccccc54)ncnc32)[C@H](O)[C@@H]1O` (stereo partly drawn) [Example 15] was tested, and the “Screen Test Failure” value was 55%. For `Cc1ccc2c(c1C)OCC(Nc1ncnc3c1ncn3[C@@H]1O[C@H](CO)[C@@H](O)[C@H]1O)C2` (stereo partly drawn) [Example 10, N^6-[7,8-Dimethyl-3-chromanylamino]adenosine], the “Screen Test Failure” value was 22%.

Same assay, conditions: 100 mg/kg intraperitoneally, one hour postinjection; percent of mice falling off the screen
`OC[C@H]1O[C@@H](n2cnc3c(NC4CSc5ccccc5C4)ncnc32)[C@H](O)[C@@H]1O` (stereo partly drawn) [Example 2] was tested, and the “Screen Test Failure” value was 100%. For `Cc1ccc2c(c1C)OCC(Nc1ncnc3c1ncn3[C@@H]1O[C@H](CO)[C@@H](O)[C@H]1O)C2` (stereo partly drawn) [Example 10, N^6-[7,8-Dimethyl-3-chromanylamino]adenosine], the “Screen Test Failure” value was 55%.

What follows are molecules tested on spontaneous locomotion (assay: Mouse Activity and Screen Test Procedure (MAST): locomotor activity in actophotometer). Conditions: 1 mg/kg intraperitoneally, one hour prior to testing.
Type: in vivo, Swiss-Webster male mice
Procedure: as §1, §2
The actophotometer consists of a cylindrical chamber whose center is occupied by another cylinder which contains the illumination for six photocells located on the perimeter of the chamber. Six light-beam interruptions equal one count. Locomotor activity is recorded by computer at ten minute intervals for 60 minutes.
as §3, with “Both phases of testing are graded: A=60-100%; C=31-59%; and N=0-30%.” left out
LAD refers to the lowest dose at which an A rating is achieved. […] The compounds are identified in the Examples.
`OC[C@H]1O[C@@H](n2cnc3c(NC4CSc5ccccc5C4)ncnc32)[C@H](O)[C@@H]1O` (stereo partly drawn) [Example 2] was tested, and the “Inhibition of Mouse Locomotion Activity” value was 34%. For `Cc1ccc2c(c1C)OCC(Nc1ncnc3c1ncn3[C@@H]1O[C@H](CO)[C@@H](O)[C@H]1O)C2` (stereo partly drawn) [Example 10, N^6-[7,8-Dimethyl-3-chromanylamino]adenosine], the “Inhibition of Mouse Locomotion Activity” value was -8%.

Same assay, conditions: 3 mg/kg intraperitoneally, one hour prior to testing
`OC[C@H]1O[C@@H](n2cnc3c(NC4CCOc5ccccc54)ncnc32)[C@H](O)[C@@H]1O` (stereo partly drawn) [Example 1] was tested, and the “Inhibition of Mouse Locomotion Activity” value was 91%. `OC[C@H]1O[C@@H](n2cnc3c(NC4CSc5ccccc5C4)ncnc32)[C@H](O)[C@@H]1O` (stereo partly drawn) [Example 2] was tested, and the “Inhibition of Mouse Locomotion Activity” value was 60%. `OC[C@H]1O[C@@H](n2cnc3c(NC4CCSc5ccccc54)ncnc32)[C@H](O)[C@@H]1O` (stereo partly drawn) [Example 15] was tested, and the “Inhibition of Mouse Locomotion Activity” value was 88%. With `Cc1ccc2c(c1C)OCC(Nc1ncnc3c1ncn3[C@@H]1O[C@H](CO)[C@@H](O)[C@H]1O)C2` (stereo partly drawn) [Example 10, N^6-[7,8-Dimethyl-3-chromanylamino]adenosine] the “Inhibition of Mouse Locomotion Activity” value was 33%.

Same assay, conditions: 10 mg/kg intraperitoneally, one hour prior to testing
With `OC[C@H]1O[C@@H](n2cnc3c(NC4CCOc5ccccc54)ncnc32)[C@H](O)[C@@H]1O` (stereo partly drawn) [Example 1] the “Inhibition of Mouse Locomotion Activity” value was 94%. For `OC[C@H]1O[C@@H](n2cnc3c(NC4CSc5ccccc5C4)ncnc32)[C@H](O)[C@@H]1O` (stereo partly drawn) [Example 2], the “Inhibition of Mouse Locomotion Activity” value was 96%. `OC[C@H]1O[C@@H](n2cnc3c(NC4CCSc5ccccc54)ncnc32)[C@H](O)[C@@H]1O` (stereo partly drawn) [Example 15] was tested, and the “Inhibition of Mouse Locomotion Activity” value was 95%. For `Cc1ccc2c(c1C)OCC(Nc1ncnc3c1ncn3[C@@H]1O[C@H](CO)[C@@H](O)[C@H]1O)C2` (stereo partly drawn) [Example 10, N^6-[7,8-Dimethyl-3-chromanylamino]adenosine], the “Inhibition of Mouse Locomotion Activity” value was 85%.

Same assay, conditions: 30 mg/kg intraperitoneally, one hour prior to testing
In the case of `OC[C@H]1O[C@@H](n2cnc3c(NC4CCOc5ccccc54)ncnc32)[C@H](O)[C@@H]1O` (stereo partly drawn) [Example 1], the “Inhibition of Mouse Locomotion Activity” value is reported as 97%. `OC[C@H]1O[C@@H](n2cnc3c(NC4CSc5ccccc5C4)ncnc32)[C@H](O)[C@@H]1O` (stereo partly drawn) [Example 2] was tested, and the “Inhibition of Mouse Locomotion Activity” value was 98%. In the case of `OC[C@H]1O[C@@H](n2cnc3c(NC4CCSc5ccccc54)ncnc32)[C@H](O)[C@@H]1O` (stereo partly drawn) [Example 15], the “Inhibition of Mouse Locomotion Activity” value is reported as 97%. With `Cc1ccc2c(c1C)OCC(Nc1ncnc3c1ncn3[C@@H]1O[C@H](CO)[C@@H](O)[C@H]1O)C2` (stereo partly drawn) [Example 10, N^6-[7,8-Dimethyl-3-chromanylamino]adenosine] the “Inhibition of Mouse Locomotion Activity” value was 91%.

Same assay, conditions: 100 mg/kg intraperitoneally, one hour prior to testing
With `OC[C@H]1O[C@@H](n2cnc3c(NC4CSc5ccccc5C4)ncnc32)[C@H](O)[C@@H]1O` (stereo partly drawn) [Example 2] the “Inhibition of Mouse Locomotion Activity” value was 99%. In the case of `Cc1ccc2c(c1C)OCC(Nc1ncnc3c1ncn3[C@@H]1O[C@H](CO)[C@@H](O)[C@H]1O)C2` (stereo partly drawn) [Example 10, N^6-[7,8-Dimethyl-3-chromanylamino]adenosine], the “Inhibition of Mouse Locomotion Activity” value is reported as 96%.

What follows are molecules tested against T1, adenosine A2 receptor (Rattus norvegicus, UniProt P30543) (assay: Adenosine Receptor Binding - A2 Receptor Affinity (RBA2), [3H]NECA displacement in striatal membranes). Conditions: 4 nM [3H]NECA, 50 nM N6-cyclopentyladenosine, 60 minutes at 25°C, read-out: RBA-2 (IC50, A2 receptor affinity).
T1 construct: Brains were thawed and then kept on ice while the striata were dissected out; tissue Pel-Freez (Rogers, Arkansas); host or cells: rat striatum (membranes)
T1 sequence (P30543 whole entry): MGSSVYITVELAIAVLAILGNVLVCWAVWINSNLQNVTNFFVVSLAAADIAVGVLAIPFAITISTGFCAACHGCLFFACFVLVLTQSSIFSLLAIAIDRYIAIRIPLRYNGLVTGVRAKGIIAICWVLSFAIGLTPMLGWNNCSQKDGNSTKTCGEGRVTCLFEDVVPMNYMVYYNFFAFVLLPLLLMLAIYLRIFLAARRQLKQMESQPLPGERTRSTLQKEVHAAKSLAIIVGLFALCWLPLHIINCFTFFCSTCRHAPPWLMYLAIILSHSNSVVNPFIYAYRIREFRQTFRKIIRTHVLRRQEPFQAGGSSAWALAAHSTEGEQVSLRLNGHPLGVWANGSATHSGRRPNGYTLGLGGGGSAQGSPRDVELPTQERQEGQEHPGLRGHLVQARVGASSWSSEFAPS
Procedure: Brains from 200-500 g mixed sex Sprague-Dawley rats were purchased from Pel-Freez (Rogers, Arkansas). Fresh brains from male Long-Evans hooded rats (Blue Spruce Farms, Altamont, NY) gave essentially identical results. Brains were thawed and then kept on ice while the striata were dissected out. Striata were disrupted in 10 vol of ice-cold 50 mM Tris·HCl (pH 7.7 at 25°C, pH 8.26 at 5°C) (Tris) for 30 seconds in a Polytron PT―10 (Brinkmann) at setting 5. The suspension was centrifuged at 50,000 xg for ten minutes, the supernatant discarded, the pellet resuspended in 10 vol ice-cold Tris as above, recentrifuged, resuspended at 1 g/5 ml, and stored in plastic vials at -70°C (stable for at least six months). When needed, tissue was thawed at room temperature, disrupted in a Polytron, and kept on ice until used.
All incubations were for 60 minutes at 25°C in 12 x 75 mm glass tubes containing 1 ml Tris with 5 mg original tissue weight of rat weight of rat striatal membranes, 4 nM [^3H]-N-ethyl adenosine-5'-carboxamide ([^3H]NECA), 50 nM N^s-cyclopentyladenosine (to eliminate A1 receptor binding), 10 mM MgCI2, 0.1 units/ml of adenosine deaminase and 1% dimethylsulfoxide. N^6-Cyclopentyladenosine was dissolved at 10 mM in 0.02 N HCI and diluted in Tris. Stock solutions and dilutions of N^6-cyclopentyladenosine could be stored at -20°C for several months. Test compounds were dissolved at 10 mM in dimethylsulfoxide on the same day as the experiment, and diluted in dimethylsulfoxide to 100x the final incubation concentration. Control incubations received an equal volume (10 µl) of dimethylsulfoxide; the resulting concentration of dimethylsulfoxide had no effect on binding. [^3H]NECA was diluted to 40 nM in Tris. The membrane suspension (5 mg/0.79 ml) contained sufficient MgC12 and adenosine deaminase to give 10 mM and 0.1 units/ml, respectively, final concentration in the incubation. […] After all additions, the rack of tubes was vortexed, and the tubes were then incubated for 60 min at 25°C in a shaking water bath. The rack of tubes was vortexed an additional time halfway through the incubation.
Incubations were terminated by filtration through 2.4 cm GF/B filters under reduced pressure. Each tube was filtered as follows: the contents of the tube were poured onto the filter, 4 ml of ice-cold Tris were added to the tube and the contents poured onto the filter, and the filter was washed twice with 4 ml of ice-cold Tris. The filtration was complete in about 12 seconds. Filters were put in scintillation vials, 8 ml of Formula 947 scintillation fluid added, and the vials left overnight, shaken, and counted in a liquid scintillation counter at 40% efficiency.
Nonspecific binding was defined as binding in the presence of […] N^6-cyclopentyladenosine, and specific binding was defined as total binding minus nonspecific binding. The IC50 was calculated by weighted nonlinear least squares curve-fitting to the mass action equation. [formula] • where Y is cpm bound • T is cpm total binding without drug • S is cpm specific binding without drug • D is the concentration of drug • and K is the IC50 of the drug Weighting factors were calculated under the assumption that the standard deviation was proportional to the predicted value of Y. Nonspecific binding was treated as a very large (infinite) concentration of drug in the computer analysis.
`OC[C@H]1O[C@@H](n2cnc3c(NC4CCOc5ccccc54)ncnc32)[C@H](O)[C@@H]1O` (stereo partly drawn) [Example 1] gave an IC50 of 0.6 µM. For `OC[C@H]1O[C@@H](n2cnc3c(NC4CSc5ccccc5C4)ncnc32)[C@H](O)[C@@H]1O` (stereo partly drawn) [Example 2], the IC50 was 0.34 µM. Molecule `OC[C@H]1O[C@@H](n2cnc3c(NC4CCSc5ccccc54)ncnc32)[C@H](O)[C@@H]1O` (stereo partly drawn) [Example 15] has an IC50 of 0.0865 µM. `Cc1ccc2c(c1C)OCC(Nc1ncnc3c1ncn3[C@@H]1O[C@H](CO)[C@@H](O)[C@H]1O)C2` (stereo partly drawn) [Example 10, N^6-[7,8-Dimethyl-3-chromanylamino]adenosine] showed an IC50 of 0.942 µM.
